Measurements from article PMC3894222 (PLoS Pathogens, 2014).

Key:
Sm5HTR [1] = target: T1, Sm5HTR (Schistosoma mansoni, UniProt G4V5G4); experiment: cAMP fluorescent competitive immunoassay, transfected HEK […] cells; format: cell-based; settings: 20 uM forskolin, IBMX pretreatment, 37 °C, 10 min
T1 construct: gene 5HT-1; full length, 463 residues, 52 kDa; pCI-neo; transiently transfected HEK 293 cells
T1 sequence (G4V5G4 1-463): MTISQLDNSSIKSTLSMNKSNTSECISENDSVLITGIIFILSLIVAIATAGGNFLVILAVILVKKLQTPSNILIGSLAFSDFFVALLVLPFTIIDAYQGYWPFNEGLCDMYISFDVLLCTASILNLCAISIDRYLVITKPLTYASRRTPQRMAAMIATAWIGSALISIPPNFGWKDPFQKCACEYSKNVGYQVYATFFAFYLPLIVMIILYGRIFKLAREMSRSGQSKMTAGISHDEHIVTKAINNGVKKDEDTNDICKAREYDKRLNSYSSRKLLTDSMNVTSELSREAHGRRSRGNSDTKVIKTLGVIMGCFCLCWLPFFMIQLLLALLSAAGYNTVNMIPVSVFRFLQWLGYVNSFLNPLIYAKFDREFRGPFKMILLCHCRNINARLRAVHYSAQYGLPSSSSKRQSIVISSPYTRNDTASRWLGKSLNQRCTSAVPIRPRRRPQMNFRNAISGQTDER

Sm5HTR [2] = target: T1, Sm5HTR; experiment: as above; format: cell-based
[3] = antagonist at 100 uM against 100 uM serotonin

| Structure (SMILES) | cAMP fluorescent competitive immunoassay, transfected HEK 293 cells (Sm5HTR [1]; [3]) | cAMP fluorescent competitive immunoassay, transfected HEK 293 cells (Sm5HTR [1]; agonist at 100 uM) | other results |
| --- | --- | --- | --- |
| CN1CCN2c3ccccc3Cc3ccccc3C2C1 (stereo not drawn) [MIAN, mianserin] | inhibited by co-application of common serotonergic antagonists such as cyproheptadine or mianserin |  |  |
| CCCN(CCC)C1CCc2cccc(O)c2C1 (stereo not drawn) [DPAT, 8-Hydroxy-DPAT] |  | classical (i.e. mammalian) serotonergic agonists such as tryptamine, DPAT and buspiperone |  |
| COc1ccc2[nH]cc(CCN)c2c1 [methyl-5HT, o-methyl-serotonin] |  |  | EC50 (Sm5HTR [2]): 72.2 nM |
| O=C1CC2(CCCC2)CC(=O)N1CCCCN1CCN(c2ncccn2)CC1 [BUS, buspirone] |  | classical (i.e. mammalian) serotonergic agonists such as tryptamine, DPAT and buspiperone |  |
| NCCc1c[nH]c2ccccc12 [Trp, tryptamine] |  | classical (i.e. mammalian) serotonergic agonists such as tryptamine, DPAT and buspiperone |  |
| CN1CCC(=C2c3ccccc3C=Cc3ccccc32)CC1 [CPH, cyproheptadine] | inhibited by co-application of common serotonergic antagonists such as cyproheptadine or mianserin |  |  |
